Experimental data published in PMC7023466, “Novel N,N′-Disubstituted Acylselenoureas as Potential Antioxidant and Cytotoxic Agents” (Antioxidants, 2020).
Like-named read-outs stand apart in the source and are kept apart here.

Key:
HT-29 cells [1] = assay: Protective effects against H2O2-induced oxidative stress (MTT); format: cell-based, human; settings: for increase fold of cell survival: compound 0.03 mg/mL, 12 h
Description: An H2O2-induced oxidative damage model on HT-29 cells was established, and the cell viability was evaluated by MTT assay, as a measurement of the antioxidant activity of the compounds. Asc was used as a positive control. Briefly, 1 × 10^4 HT-29 cells per well were grown in 96-well plates. After 12 h of incubation, DMSO; 4b, 8c, 9c, and 10b compounds; or Asc were added to each well at concentrations of 0.03 and 0.003 mg/mL, and incubated for 1 h. Subsequently, H2O2 (200, 250, and 300 µM) was added and the cells were incubated for 12 h to induce cell damage. An MTT assay was performed as mentioned previously. For each treatment, the mean cell viability was calculated from three independent experiments. The DMSO-treated controls were assigned with a cell viability value of 100% (Vcontrol). The results are expressed as the increase fold of cell survival, as follows:(3) Increase fold of cell survival = (Vsample−Vsample + H2O2)/VControl−VH2O2 where Vsample refers to the viability of the cells only treated with the corresponding compound, VH2O2 refers to the viability of the HT-29 cells exposed to H2O2, and Vsample + H2O2 refers to the cell survival of each treatment with a compound and H2O2. The data are expressed as increase fold of cell survival ± standard error of the mean (SEM) in at least three independent experiments performed in quadruplicates.

[2] = DPPH radical scavenging assay; settings: for DPPH radical scavenging: 0.003 mg/mL
Description: DPPH assay was performed as described by Svinyarov. Briefly, each compound was initially dissolved in absolute methanol at a concentration of 1 mg/mL, and serial dilutions were prepared. Ascorbic acid (Asc), a well-known and potent antioxidant, was used as a positive control. A methanolic solution (100 µM) of DPPH^• was prepared daily and […]. The absorbance measurements of this solution were needed in order to check the stability of the radical through the time of analysis. Then, 100 µL of DPPH in methanol were added to 100 µL of the compounds’ solutions, and the decolorization of the purple radical to the yellow reduced form was followed at 517 nm. Determinations were recorded at several time intervals. All of the measurements were carried out in triplicate. The results were expressed as the percentage of the radical scavenged, calculated using the following formula:(1) % DPPH radical scavenging = Acontrol−Asample/Acontrol × 100 where Acontrol refers to the absorbance of the negative control and Asample refers to the absorbance of the tested compounds. The results are expressed as percentage of DPPH radical scavenging ± standard deviation (SD).

MCF-7 cells = assay: MTT cell viability assay, MCF-7; format: cell-based, human; settings: for activity at 10 µM / activity at 50 µM: read-out: Growth (%) MCF-7; for reduction of cell growth: in at least one of the cell lines (MCF-7, HT-29, HTB-54)
Description: (§1) The cell viability assay of each compound was carried out using the MTT assay. Each compound was dissolved in dimethyl sulfoxide (DMSO) at a concentration of 0.01 M. Serial dilutions were prepared with a non-supplemented culture medium. The effect of each compound on the cell viability was determined at two different concentrations (10 and 50 µM) in MCF-7, HTB-54, and HT-29 cells. In addition, the selected compounds were tested at six different concentrations between 0.1–100 µM in MCF-7, T47D, H1299, HTB-54, and 184B5 cells.
(§2) Briefly, 1 × 10^4 tumor cells/well or 2 × 10^4 non-tumorigenic cells/well were grown in 96-well plates for 12 h. Then, these cells were incubated with either DMSO (control) or a different concentration of each of the tested compounds for 48 h. Three hours before the termination point, 20 µL of MTT were added to measure the cellular viability. The resultant formazan crystals were dissolved in 50 µL of DMSO, and the absorbance was measured at 570 and 630 nm. The results are expressed as IC50, the half maximal inhibitory concentration. This value was calculated using OriginPro 8.5.1. software (OriginLab, Northampton, MA, USA) by nonlinear curve fitting. Furthermore, the selectivity index (SI) was calculated as the ratio of the IC50 values determined for the non-malignant and the tumor cells (IC50 (184B5)/IC50 (MCF-7). The data were obtained from at least three independent experiments performed in quadruplicates.

HT-29 cells [3] = assay: MTT cell viability assay, HT-29; format: cell-based; settings: Homo sapiens, 48 h, read-out: Growth (%) HT-29
Description: as §1, §2

HTB-54 cells = assay: MTT cell viability assay, HTB-54; format: cell-based; settings: Homo sapiens, 48 h; for activity at 10 µM / activity at 50 µM: read-out: Growth (%) HTB-54
Description: as §1, §2

[4] = ABTS radical scavenging assay; settings: for ABTS radical scavenging: 0.03 mg/mL, after the incubation time; for ABTS radical scavenging activity compared with controls: 0.003 mg/mL
Description: ABTS radical scavenging was assayed with a colorimetric test as well [59]. Briefly, ABTS was dissolved in deionized water at 1 mg/mL and oxidized to ABTS^+• with potassium persulfate (2.45 mM final concentration). This reaction mixture was kept overnight at room temperature in the dark. After radical generation, ABTS^+• was diluted with 50% ethanol until an absorbance of 0.70 ± 0.02 at 734 nm for measurements. The tested compounds were solved in absolute ethanol at a concentration of 1 mg/mL, and 20 µL of this solution were added to 180 µL of the diluted ABTS^+•. After 6 min of incubation, the absorbance at 734 nm was recorded using 50% ethanol as the blank. Trolox and Asc were used as the positive controls. All of the determinations were carried out in triplicate. The same time intervals as in the DPPH assay were also measured. The ability to scavenge ABTS^+• was calculated using the following formula:(2) % ABTS radical scavenging=Acontrol−Asample/Acontrol × 100 where Acontrol refers to the absorbance of the negative control and Asample refers to the absorbance of the tested compounds. The results are expressed as percentage of ABTS radical scavenging ± SD.

T47D cells = assay: MTT cell viability assay, T47D; format: cell-based; settings: Homo sapiens, breast cancer cells, 48 h
Description: as §1, §2

H1299 cells = assay: MTT cell viability assay, H1299; format: cell-based; settings: Homo sapiens, NCI-H1299, lung cancer cells, 48 h
Description: as §1, §2

184B5 cells = assay: MTT cell viability assay, non-malignant 184B5; format: cell-based; settings: Homo sapiens, non-malignant breast cells, 48 h
Description: as §1, §2

[5] = parameters: method as in doi:10.1007/s11172-013-0228-5; settings: conditions not tested by the authors; cited from earlier work
[6] = Homo sapiens, MCF7, 10 μM, 48 h
[7] = Homo sapiens, MCF7, 50 μM, 48 h

SMILES | DPPH radical scavenging [2] | activity at 10 µM (MCF-7 cells; [6]) | activity at 50 µM (MCF-7 cells; [7]) | activity at 10 µM (HT-29 cells [3]) | activity at 50 µM (HT-29 cells [3]) | activity at 10 µM (HTB-54 cells; HTB-54) | activity at 50 µM (HTB-54 cells; HTB-54) | further results
O=C1O[C@H]([C@@H](O)CO)C(O)=C1O [Asc, Ascorbic acid, reference compound] |  |  |  |  |  |  |  | protective effect against H2O2-induced oxidative stress (HT-29 cells [1]; 0.003 mg/mL): disappeared
COc1ccc(NC(=[Se])NC(=O)c2ccccc2)cc1 [Compound 1c] | around 40% | 67.8% | 13.9% | 74.9% | 31.9% | 64.4% | 57.2% | DPPH inhibition compared with Asc ([2]; 0.0006 mg/mL, all time-points): greater inhibition compared with Asc
O=C(NC(=[Se])Nc1ccc(Cl)cc1)c1ccccc1 [Compound 1e] | around 40% | 74% | 13.9% | 77.9% | 33.8% | 82.3% | 57.2% | 
O=C(NC(=[Se])Nc1ccccc1)c1ccccc1Cl [Compound 2a] | around 40% | 93.6% | 30.5% | 79.1% | 37.8% | 91.3% | 65.6% | 
CSc1ccc(Cl)c(C(=O)NC(=[Se])Nc2ccc(C)cc2)c1 [Compound 3b] | around 40% | 64.2% | 24.5% | 64.7% | 42.5% | 45.1% | 22.2% | 
Cc1ccc(NC(=[Se])NC(=O)C=Cc2ccccc2)cc1 [Compound 8b] |  | 95.5% | 82.3% | 95.3% | 76.9% | 85.9% | 72.8% | ABTS radical scavenging [4]: below 60%
COc1ccc(NC(=[Se])NC(=O)C=Cc2ccccc2)cc1 [Compound 8c] |  | 70.2% | 5.7% | 73.4% | 42.5% | 64.1% | 19.3% | ABTS radical scavenging activity compared with controls [4]: potent radical scavenging activity similar to Trolox
COc1ccc(NC(=[Se])NC(=O)c2cc3ccccc3s2)cc1 [Compound 9c] |  | 63% | 49.2% | 47.9% | 37.3% | 64.2% | 7.1% | increase fold of cell survival (HT-29 cells [1]; H2O2 200 µM): ≤ 0.8 fold; increase fold of cell survival (HT-29 cells [1]; H2O2 250 µM): ≤ 1.7 fold; increase fold of cell survival (HT-29 cells [1]; H2O2 300 µM): up to 3.6 fold
O=C(NC(=[Se])Nc1ccc(C(F)(F)F)cc1)c1cc2ccccc2s1 [Compound 9d] |  | 91.1% | 70.2% | 61.2% | 36% | 84.5% | 79.3% | ABTS radical scavenging [4]: below 60%
Cc1ccc(NC(=[Se])NC(=O)c2ccc3c(c2)OCO3)cc1 [Compound 10b] |  | 63% | 7.4% | 63.3% | 43.9% | 16.4% | 12% | IC50 (T47D cells): 11.9 ± 1 µM; ABTS radical scavenging activity compared with controls [4]: potent radical scavenging activity similar to Trolox; reduction of cell growth (MCF-7 cells; 10 μM, 48 h): at least 45%; reduction of cell growth (MCF-7 cells; 50 μM, 48 h): more than 85%; IC50 (MCF-7 cells; Homo sapiens, MCF7, breast cancer cells, 48 h, MTT, read-out: IC50 MCF-7): 7.3 ± 0.3 µM; SI (selectivity index) (MCF-7 cells; IC50 (184B5)/IC50 (MCF-7)): >13.6; IC50 (H1299 cells): 5.9 ± 1.4 µM; IC50 (HTB-54 cells; HTB-54, lung cancer cells, MTT, read-out: IC50 HTB-54): 1.5 ± 1.8 µM; IC50 (HTB-54 cells; HTB-54 and H1299 pooled, read-out: IC50 on both lung cancer cells): 1.5 to 7.3 µM; IC50 (184B5 cells): > 100 µM
O=[Se]([O-])[O-].[Na+].[Na+] [sodium selenite] |  |  |  |  |  |  |  | DPPH radical scavenging activity [5]: only showed DPPH radical scavenging activity at pH 3.0
